Four molecules from patent US20040077617A1, “Fused cycloalkyl amides and acids and their therapeutic applications” (priority 2002, published 2004) can be followed below.

In data set [1] the test system is CD-1 mice. Put plainly: Subcutaneous pentylenetetrazole (PTZ) Seizure Procedure. Format: in vivo. The note with it: Mus musculus; subcutaneous PTZ 85 mg/kg; male CD-1 mice; p.o. 30 minutes prior to PTZ; observed 15 minutes; linear regression; read-out: ED50 (dose at which 50% of the mice were protected from tonic seizures). As for the experimental part: (§1) Adult, male, CD-1 mice (22-25 grams) were obtained from Charles River Laboratories (Portage, Mich.) and housed at Abbott Laboratories (Abbott Park) under standard lighting conditions of 12 hours on/12 hours off, with lights on at 6 a.m. Food and water were provided ad libitum and mice weighed 25-35 grams at the time of testing.
(§2) Compounds were prepared for oral administration by suspending them in a vehicle of 100 μL Tween® 80 per mL hydroxypropyl methylcellulose (2 mg/mL, Abbott Laboratories). Compound solutions were administered at a volume of 10 mL/kg, p.o.
Subcutaneous pentylenetetrazole (PTZ) Seizure Procedure:
The method used was similar to that of E. A. Swinyard, General principles: Experimental selection, quantification and evaluation of anti-convulsants, Anti-epileptic Drugs, Third Edition, R. Levey, et al., Editors. 1989, Raven Press Ltd: New York. During the experiment the mice were housed individually in clear polycarbonate cages for observation. […] Seizures were induced by the subcutaneous injection of pentylenetetrazole (PTZ, 85 mg/kg) just below the nape of the neck. […] A total of 20 mice were used in each group. The ED50for the compounds were calculated using linear regression and represent the dose at which 50% of the mice were protected from tonic seizures.

Data set [2] concerns CD-1 mice. Description: Maximal Electroshock Procedure (protection from tonic seizures). Format: in vivo. The note with it: Mus musculus, po; maximal electroshock (50 mA, 0.4 second, corneal electrodes); male CD-1 mice; p.o. 30 minutes prior to stimulation; PROBIT analysis; read-out: ED50 (dose at which 50% of the mice were protected from tonic seizures). As for the experimental part: as §1, §2
Maximal Electroshock Procedure:
The method used was similar to that of E.A. Swinyard, General principles: Experimental selection, quantification and evaluation of anti-convulsants, Anti-epileptic Drugs, Third Edition, R. Levey, et al., Editors. 1989, Raven Press Ltd: New York. Mice were pretreated orally with compounds of the present invention 30 minutes prior to electrical stimulation. Electrical stimulation consisted of pulsed electrical current (50 mA, 0.4 second duration, pulse width 0.5 msec, 60 pulses/sec) applied via corneal electrodes to induce seizure. The stimulation was delivered with an ECT Unit (Ugo Basile #7801). […] The percent protection from tonic seizures was calculated by dividing the number of protected mice by the total number in the group. […]

Consider `CC1(C)[C@@H]2CC3[C@H](C(=O)O)[C@@]3(C)C[C@@H]21` (stereo partly drawn) (hydrate or solvate) [Example 1, (1S,3S,4S,7R)-3,8,8-trimethyltricyclo[5.1.0.0^3,5]octane-4-carboxylic acid], for which the melting point (usually the temperature of the solid-liquid transition) came out at 86 °C. Molecule `CC1(C)[C@@H]2CC3[C@H](C(N)=O)[C@@]3(C)C[C@@H]21` (stereo partly drawn) [Example 3, (1S,3S,4S,7R)-3,8,8-trimethyltricyclo[5.1.0.0^3,5]octane-4-carboxamide] came in with a melting point of 121.5 to 122.5 °C. Turning to `CC1(C)[C@@H]2CC3[C@H](C(=O)NCC(N)=O)[C@@]3(C)C[C@@H]21` (stereo partly drawn) [Example 4, (1S,3S,4S,7R)-N-(2-amino-2-oxoethyl)-3,8,8-trimethyltricyclo[5.1.0.0^3,5]octane-4-carboxamide], the melting point was in the range of 169.2 to 169.7 °C. Take `CCCC(CCC)C(=O)O` [Valproate]: the ED50 (usually the midpoint of the dose-response relation) in data set [1] stood at 1800 µmol/kg; in data set [2], 1200 µmol/kg.
